The values that follow come from US10039283B2, “Substituted pyrazolyl-nicotin(thio)amide derivatives and their use as fungicides” (BAYER CROPSCIENCE AKTIENGESELLSCHAFT, priority 2014, dated 2018).

Structures are written as SMILES.

One series can be described thus: Log P by HPLC on reversed phase, method [a], acidic range (0.1% formic acid). The format is physicochemical. The note with it: LC-UV, 0.1% formic acid in water and acetonitrile.
Consider `O=C(Nc1cnn(-c2ccccc2Cl)c1C(F)(F)F)c1cccnc1C(F)(F)F` [Example 20], for which the LogP is 2.87^[a];.

For the molecule `O=C(Nc1cnn(-c2c(F)cccc2F)c1C(F)(F)F)c1cccnc1C(F)(F)F` [Example 19], the LogP was 2.79^[a];.

As to `Cc1c(NC(=O)c2cccnc2C(F)F)cnn1-c1ccccc1F` [Example 22], the LogP was 1.71^[a];.

As for `Cc1ccc(-n2ncc(NC(=O)c3cc(C)cnc3C(F)F)c2C(C)C)cc1` [Example 208], the LogP is 2.73^[a].

For `O=C(Nc1cnn(-c2ccccc2Cl)c1C(F)(F)F)c1cccnc1C(F)F` [Example 77], the LogP was 2.58^[a];.

Regarding `CCc1c(NC(=O)c2cccnc2C(F)F)cnn1-c1ccc(C)cc1` [Example 99], the LogP is 2.34^[a].

Take `O=C(Nc1cnn(-c2ccc(Cl)c(Cl)c2)c1Cl)c1cccnc1C(F)F` [Example 252]: the LogP was 3.06^[a].

In the case of `Cc1ncccc1C(=O)Nc1cnn(-c2ccc(Br)cc2)c1C(F)(F)F` [Example 249], the LogP is 2.28^[a].

`Cc1cnc(C(F)F)c(C(=O)Nc2cnn(-c3ccccc3)c2C#N)c1` [Example 166]: the LogP was 2.51^[a].

On to `COc1cnc(C(F)F)c(C(=O)Nc2cnn(-c3ccc(Cl)cc3)c2C(F)(F)F)c1` [Example 169], for which the LogP was 3.29^[a].

Take `CCc1c(NC(=O)c2cccnc2C(F)F)cnn1-c1cccc(C(F)(F)F)c1` [Example 117]: the LogP is 2.69^[a].

Turning to `CC(C)c1ccc(-n2ncc(NC(=O)c3cccnc3C(F)F)c2C(F)(F)F)cc1` [Example 90], the LogP was 3.55^[a].

Take `O=C(Nc1cnn(-c2ccc(Cl)cc2)c1-c1cccc(F)c1)c1cccnc1C(F)F` [Example 197]: the LogP was 3.07^[a].

For the molecule `CCc1c(NC(=O)c2cccnc2C(F)F)cnn1-c1ccc(C(F)(F)F)cc1` [Example 118], the LogP is 2.76^[a].

Regarding `O=C(Nc1cnn(-c2ccccc2C(F)(F)F)c1-c1ccccc1)c1cccnc1C(F)F` [Example 129], the LogP is 2.70^[a].

For the molecule `O=C(Nc1cnn(-c2ccc(Cl)cc2)c1OCC(F)(F)F)c1cccnc1C(F)F` [Example 221], the LogP is 2.88^[a].

Regarding `O=C(Nc1cnn(-c2ccc(Cl)cc2Cl)c1C(F)(F)F)c1ccc(Br)nc1C(F)F` [Example 172], the LogP was 3.96^[a].

As to `O=C(Nc1cnn(-c2ccc(Br)cc2)c1C(F)(F)F)c1cccnc1C(F)F` [Example 63], the LogP is 3.13^[a].

On to `CCCc1c(NC(=O)c2cccnc2C(F)F)cnn1-c1ccccc1` [Example 121], for which the LogP was 2.28^[a].

Take `CCC(CC)n1ncc(NC(=O)c2cc(C)cnc2C(F)F)c1C` [Example 38]: the LogP was 2.12^[a].

In the case of `O=C(Nc1cnn(-c2ccc(F)cc2)c1C(F)(F)F)c1cccnc1C(F)F` [Example 89], the LogP is 2.64^[a].

As for `O=C(Nc1cnn(-c2ccc(Cl)cc2)c1C(F)(F)F)c1ccc(Br)nc1C(F)F` [Example 145], the LogP was 3.73^[a].

In the case of `O=C(Nc1cnn(-c2ccccc2C(F)(F)F)c1-c1ccc(Cl)cc1)c1cccnc1C(F)F` [Example 132], the LogP is 3.04^[a].

Turning to `COc1cnc(C(F)F)c(C(=O)Nc2cnn(-c3ccc(Cl)cc3Cl)c2C(F)(F)F)c1` [Example 168], the LogP was 3.53^[a].

For the molecule `O=C(Nc1cnn(-c2ccc(Br)cc2)c1-c1ccc(F)cc1)c1cccnc1C(F)F` [Example 195], the LogP was 3.20^[a].

Consider `Cc1cnc(C(F)F)c(C(=O)Nc2cnn(-c3ccccc3Cl)c2C)c1` [Example 69], for which the LogP was 2.17^[a].

For the molecule `CCc1ccc(-n2ncc(NC(=O)c3cccnc3C(F)F)c2C(F)(F)F)cc1` [Example 255], the LogP is 3.19^[a].

Take `O=C(Nc1cnn(-c2c(Cl)cccc2Cl)c1C(F)(F)F)c1cccnc1C(F)F` [Example 91]: the LogP is 2.94^[a].

As to `Cc1cnc(C(F)F)c(C(=O)Nc2cnn(C(C)(C)C)c2C)c1` [Example 36], the LogP is 1.90^[a].

`Cc1c(NC(=O)c2ccc(Cl)nc2C(F)F)cnn1C1CCCC1` [Example 41]: the LogP is 2.46^[a].

As for `O=C(Nc1cnn(-c2ccc(-c3ccccc3)cc2)c1C(F)(F)F)c1cccnc1C(F)F` [Example 232], the LogP is 3.59^[a].

As to `CCC(CC)n1ncc(NC(=O)c2ccc(Cl)nc2C(F)F)c1C` [Example 39], the LogP was 2.51^[a].

Regarding `Cc1nn(-c2cccc(F)c2)c(C)c1NC(=O)c1cccnc1C(F)F` [Example 15], the LogP was 1.99^[a].

As for `O=C(Nc1cnn(-c2ccccc2C(F)(F)F)c1C(F)F)c1cccnc1C(F)F` [Example 31], the LogP was 2.51^[a].

Turning to `O=C(Nc1cnn(-c2ccc(Br)cc2)c1-c1cccc(F)c1)c1cccnc1C(F)F` [Example 201], the LogP is 3.19^[a].

Turning to `O=C(Nc1cnn(-c2ccc(Cl)cc2)c1C(F)(F)F)c1cccnc1CF` [Example 236], the LogP is 2.67^[a].

Turning to `Cc1cnc(C(F)F)c(C(=O)Nc2cnn(-c3cccc(Cl)c3Cl)c2C(F)(F)F)c1` [Example 167], the LogP is 3.35^[a].

On to `O=C(Nc1cnn(-c2ccc(Br)cc2)c1C(F)F)c1cccnc1C(F)F` [Example 28], for which the LogP is 2.80^[a].

Consider `Cc1ncccc1C(=O)Nc1cnn(-c2ccc(Cl)cc2)c1C(F)(F)F` [Example 237], for which the LogP is 2.12^[a].

Turning to `O=C(Nc1cnn(-c2ccc(C(F)(F)F)cc2)c1C(F)(F)F)c1cccnc1C(F)F` [Example 50], the LogP was 3.21^[a].

As for `CC(C)(C)c1ccc(-n2ncc(NC(=O)c3cccnc3C(F)F)c2C(F)(F)F)cc1` [Example 231], the LogP is 3.79^[a].

For the molecule `O=C(Nc1cnn(-c2ccccc2F)c1-c1ccc(F)cc1)c1cccnc1C(F)F` [Example 147], the LogP is 2.51^[a].

In the case of `O=C(Nc1cnn(-c2c(Cl)cccc2Cl)c1C(F)(F)F)c1ccc(Cl)nc1C(F)F` [Example 160], the LogP is 3.53^[a].

Consider `Cc1ccccc1-n1ncc(NC(=O)c2cccnc2C(F)F)c1C(F)(F)F` [Example 73], for which the LogP is 2.71^[a].

For the molecule `O=C(Nc1cnn(-c2ccc(Cl)cc2)c1SC(F)(F)F)c1cccnc1C(F)F` [Example 224], the LogP is 3.25^[a].

Turning to `O=C(Nc1cnn(-c2c(F)cccc2F)c1C(F)(F)F)c1cccnc1C(F)F` [Example 21], the LogP is 2.50^[a];.

In the case of `Cc1cnc(C(F)F)c(C(=O)Nc2cnn(-c3ccc(Br)cc3)c2C)c1` [Example 133], the LogP was 2.59^[a].

On to `Cc1c(NC(=O)c2cccnc2C(F)F)cnn1-c1ccccc1` [Example 12], for which the LogP is 1.78^[a].

With `O=C(Nc1cnn(-c2cccc(F)c2)c1C(F)(F)F)c1cccnc1C(F)F` [Example 62], the LogP was 2.66^[a].

In the case of `CCc1c(NC(=O)c2cccnc2C(F)F)cnn1CCC(C)C` [Example 124], the LogP was 2.32^[a].

The nature of the next series: Log P by HPLC on reversed phase, method [b], neutral range (0.001 molar ammonium acetate). The format is physicochemical.
Details: not given
The procedure:
Measurement of Log P values was performed according to EEC directive 79/831 Annex V.A8 by HPLC (High Performance Liquid Chromatography) on reversed phase columns with the following methods: [b] Log P value is determined by measurement of LC-UV, in a neutral range, with 0.001 molar ammonium acetate solution in water and acetonitrile as eluent (linear gradient from 10% acetonitrile to 95% acetonitrile). Calibration was done with straight-chain alkan2-ones (with 3 to 16 carbon atoms) with known Log P values (measurement of Log P values using retention times with linear interpolation between successive alkanones). Lambda-max-values were determined using UV-spectra from 200 nm to 400 nm and the peak values of the chromatographic signals.
On to `O=C(Nc1cnn(-c2ccccc2Cl)c1C(F)(F)F)c1cccnc1C(F)(F)F` [Example 20], for which the LogP was 2.80^[b].

With `O=C(Nc1cnn(-c2c(F)cccc2F)c1C(F)(F)F)c1cccnc1C(F)(F)F` [Example 19], the LogP is 2.72^[b].

As for `Cc1c(NC(=O)c2cccnc2C(F)F)cnn1-c1ccccc1F` [Example 22], the LogP is 1.68^[b].

Regarding `O=C(Nc1cnn(-c2ccccc2Cl)c1C(F)(F)F)c1cccnc1C(F)F` [Example 77], the LogP is 2.53^[b].

Turning to `O=C(Nc1cnn(-c2c(F)cccc2F)c1C(F)(F)F)c1cccnc1C(F)F` [Example 21], the LogP is 2.43^[b].
